Where two headings read alike, the source gives them in different places.

Series [1] relates to T. gondii type I RH strain. The series can be described thus: Acute toxoplasmosis survival study in CD1 mice. In kind it is in vivo, mouse. Particulars: for mouse survival, by day: once a day for 7 days, untreated infected mice succumbed by day 9. The procedure: To determine the in vivo anti-Toxoplasma effect of the molecule JF363 during the acute phase of infection, we analyzed the survival rate of non-inbred CD1 mice infected by the type I RH strain treated for […]. […] All untreated and infected mice succumbed by day 9 (Figure 3).
Non-inbred CD1a mice (Janvier Labs, Le Genest-Saint-Isle, France) were intraperitoneally infected with 100 tachyzoites of RH YFP strain in […] of PBS. Six hours post-infection and then once a day for 7 days, mice were treated per os with either 40 or 160 mg/kg of JF363 prepared in corn oil/5% DMSO. Control animals were treated with the vehicle alone. Animals were monitored each day and sacrificed when the limit points were reached.

A short description of series [2]: Ex vivo biodistribution, ratios infected/control mice. To be noted: suggested from brain radioactivity of the iodinated radiotracer. In kind it is in vivo. As for the experimental part: Twenty-four hours after injection and immediately following SPECT/CT image acquisitions, anesthetized mice were euthanized using CO2, and tissue samples (brain, heart, stomach, liver, salivary glands, abdominal fat, small intestine, muscle, pancreas, lungs, spleen, kidneys, blood, thyroid, large intestine, genital tract) and urine were harvested. Samples were weighed, and their radioactivity was determined with a gamma counter (Wizard2, PerkinElmer, Courtaboeuf, France). Results were corrected for decay, injected dose, and organ weight and expressed as % ID/g because the bodyweight (BW) of mice was different between both groups (normal and infected).
Standard uptake values (SUVs) were also calculated ((tissue activity/gram of tissue)/ID × BW). Due to high activity detected in the animal blood, results were also expressed as a ratio between %ID in a gram of organ and %ID in a gram of blood (org/blood ratio). Then, to assess the effect of Toxoplasma infection on the biodistribution of the iodoJF363, the ratios of radioactivity (infected/noninfected) were calculated.

For another series, the system named is Toxoplasma gondii. Briefly: In vitro anti-Toxoplasma proliferation in infected HFF monolayers (parasitic index, ScanR microscopy). It counts as cell-based. As for the experimental part: To investigate the effect of the JF363 on parasite proliferation, human HFFs were infected and treated with JF363 (concentrations ranging from 0 to 2 μM). After 24 h of culture, parasites were enumerated within the parasitophorous vacuole, and the IC50 was calculated for each parasite strain (Table 1).
To assess the drug activity on Toxoplasma gondii, confluent HFF monolayers were infected with parasites, 5 × 10^4 per well, then centrifuged for 30 s at 500× g and incubated for 30 min in a water bath at 37 °C to allow invasion. The wells were then washed three times with phosphate-buffered saline (PBS) to eliminate extracellular parasites, and drugs were added at various concentrations ranging from 1 to 2 μM in triplicate. After 24 h incubation at 37 °C in a humidified atmosphere containing 5% CO2, Hoechst 33342 (5 μg/mL) was added to host cells infected by parasites and further incubated for 20 min. After two washes, cells were fixed with 3.7% formaldehyde for 10 min at 37 °C.
In experiments using nonfluorescent parasites, Toxoplasma vacuoles were fixed for 15 min with 3.7% formaldehyde and stained with anti-GRA1 mAb diluted 1/500 in 2% bovine serum albumin (BSA) and 0.1% Triton X-100 in PBS, for 1 h at room temperature. After two washes, goat serum anti-mouse IgG (H + L)–Alexa-488 (1/500) was added for 20 min. Finally, Hoechst 33342 was added as described above.
The number of infected cells, i.e., cells harboring parasitophorous vacuoles, and the number of parasites per vacuole were determined using an Olympus ScanR microscope (×20 objective) and ScanR software. First, the parasitic index (PI) in % compared to the control was calculated as follows: PI = ((number of parasite/100 cells in treated wells) × (% of infected HFFs in treated well)/(number of parasite/100 cells in untreated wells) × (% of infected HFFs in untreated wells)) × 100. Then, the 50% inhibitory concentration (IC50) was calculated using Prism software (Prism 4 for Mac OS X, version 5.0b, San Diego, CA, USA).

By IC50 is commonly meant the midpoint of a concentration-inhibition curve. For `COc1cccc(CC(=O)Nc2ccc(C(=O)NO)cc2)c1` [JF363], the “mouse survival, by day” value in series [1] (40 mg/kg oral) stood at 11 days; in series [1] (160 mg/kg oral), 14 days. Besides, the “increase of mouse survival” value in series [1] (40 mg/kg oral, lethal dose of RH strain) is “two days”. Also, the “blood–brain barrier permeability” value in series [2] is “suggests a permeability of the blood–brain barrier”. The 50% inhibitory concentration (IC50) in the series with Toxoplasma gondii (24 h, read-out: IC50 range, strains other than haplogroup I and II, 24 h) was 170 to 430 nM; with Toxoplasma gondii (24 h, strain GUY008-ABE, haplogroup 5, clade F, 24 h, mean ± SD of 3 experiments) it was 300 ± 210 nM; with Toxoplasma gondii (24 h, strain GUY009-AKO, haplogroup 10, clade F, 24 h, mean ± SD of 3 experiments) it was 430 ± 120 nM; in the series with Toxoplasma gondii (24 h, strain GUY021-TOJ, haplogroup 10, clade F, 24 h, mean ± SD of 3 experiments) it was 270 ± 30 nM; with Toxoplasma gondii (24 h, strain GUY-JAG1, haplogroup 11, no clade, 24 h, mean ± SD of 3 experiments), 170 ± 340 nM; with Toxoplasma gondii (24 h, strain MAS, haplogroup 4, clade B, 24 h, mean ± SD of 3 experiments) it was 210 ± 10 nM. Besides, the concentration for half-maximal inhibition (IC50) with Toxoplasma gondii (24 h, strain Prugniaud, haplogroup 2, clade D, 24 h, mean ± SD of 3 experiments) was 270 nM; with Toxoplasma gondii (24 h, strain RH-YFP, haplogroup 1, clade A, 24 h, mean ± SD of 3 experiments), 560 ± 50 nM; in the series on Toxoplasma gondii (24 h, strain VEG, haplogroup 3, clade C, 24 h, mean ± SD of 3 experiments), 180 ± 70 nM; in the series on Toxoplasma gondii (all tested T. gondii strains, depending on the haplogroup, read-out: IC50 range) it was 170 to 560 nM.

These data come from PMC8952293, “A Histone Deacetylase (HDAC) Inhibitor with Pleiotropic In Vitro Anti-Toxoplasma and Anti-Plasmodium Activities Controls Acute and Chronic Toxoplasma Infection in Mice” (International Journal of Molecular Sciences, 2022).
